This experiment addresses T1, Angiotensin-umwandelnde Enzym (ACE) (Oryctolagus cuniculus, UniProt P12822).
T1 construct: Es wurde ein Kaninchen-Lungengewebe-Präparat; from tissue; host or cells: lung of adult male rabbits
T1 sequence (P12822 34-1310): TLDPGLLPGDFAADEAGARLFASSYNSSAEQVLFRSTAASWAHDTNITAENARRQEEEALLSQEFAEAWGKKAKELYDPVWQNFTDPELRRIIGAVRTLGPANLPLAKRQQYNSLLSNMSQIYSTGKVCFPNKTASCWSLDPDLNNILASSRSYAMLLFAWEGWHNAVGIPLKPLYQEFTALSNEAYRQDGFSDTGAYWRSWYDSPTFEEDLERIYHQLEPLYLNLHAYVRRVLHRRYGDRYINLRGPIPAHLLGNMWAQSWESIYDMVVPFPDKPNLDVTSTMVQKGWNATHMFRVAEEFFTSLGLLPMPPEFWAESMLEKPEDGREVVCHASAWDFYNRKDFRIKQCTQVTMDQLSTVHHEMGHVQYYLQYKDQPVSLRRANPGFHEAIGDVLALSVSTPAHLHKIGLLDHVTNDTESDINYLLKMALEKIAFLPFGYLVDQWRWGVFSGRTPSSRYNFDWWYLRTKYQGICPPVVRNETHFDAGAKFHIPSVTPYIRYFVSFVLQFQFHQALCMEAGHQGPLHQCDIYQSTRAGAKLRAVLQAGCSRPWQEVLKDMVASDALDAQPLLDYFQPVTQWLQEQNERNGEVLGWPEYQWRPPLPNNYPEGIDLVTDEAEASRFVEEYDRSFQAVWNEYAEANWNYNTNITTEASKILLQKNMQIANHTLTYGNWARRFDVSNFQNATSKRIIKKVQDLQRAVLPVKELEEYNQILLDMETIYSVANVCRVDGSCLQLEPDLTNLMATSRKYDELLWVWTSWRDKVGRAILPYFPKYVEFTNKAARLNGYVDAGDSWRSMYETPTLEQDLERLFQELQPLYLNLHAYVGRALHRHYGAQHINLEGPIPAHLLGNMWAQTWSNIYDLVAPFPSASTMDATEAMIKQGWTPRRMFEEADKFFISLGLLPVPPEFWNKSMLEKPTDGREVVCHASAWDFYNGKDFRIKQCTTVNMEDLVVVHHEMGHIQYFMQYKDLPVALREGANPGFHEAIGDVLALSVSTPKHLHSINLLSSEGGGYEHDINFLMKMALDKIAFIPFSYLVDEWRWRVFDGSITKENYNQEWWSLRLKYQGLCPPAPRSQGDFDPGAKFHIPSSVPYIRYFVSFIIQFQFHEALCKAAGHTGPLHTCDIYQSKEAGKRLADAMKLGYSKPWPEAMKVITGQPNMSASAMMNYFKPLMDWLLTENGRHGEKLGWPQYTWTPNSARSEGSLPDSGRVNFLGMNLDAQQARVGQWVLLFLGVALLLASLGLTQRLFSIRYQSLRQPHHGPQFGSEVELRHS
As to the kind of experiment: In vitro ACE inhibition (ACEI), rabbit lung tissue preparation, hippuryl-histidyl-leucine substrate, method of Cheung and Cushman. It is filed as biochemical, Kaninchen. From the text:
Die in-vitro-Hemmung des Enzyms, welches das Angiotensin umwandelt, kann bei den Verbindungen dieser Erfindung analog zu Biochim. Biophys. Acta 293, 451 (1973) nachgewiesen werden. Gemäß dieser Methode werden die genannten Verbindungen in ungefähr 1 mMol-Konzentrationen in Phosphatpuffer aufgelöst. Zu 100 Mikroliter von Lösungen der Testverbindung in Phosphatpuffer, welche man auf die gewünschte Konzentration verdünnt, gibt man zuerst 100 Mikroliter von 5 millimolarem Hippuryl-histidylleucin in Phosphatpuffer und dann 50 µl des Angiotensin-umwandelnden Enzyms. Dieses Enzym wird aus Lungen von erwachsenen männlichen Kaninchen in Tris-Puffer, der Kalium- und Magnesiumchlorid und auch Rohrzucker enthält, hergestellt. Die genannten Lösungen werden 30 Minuten bei 37 °C inkubiert, und die weitere Reaktion wird durch Hinzufügen von 0,75 ml einer 0,6-normalen wäßrigen Natriumhydroxidlösung gestoppt. Dann gibt man bei Zimmertemperatur 100 Mikroliter einer 0,2 %-igen Lösung von o-Phthalaldehyd in Methanol und nach 10 Minuten 100 Mikroliter 6n-Chlorwasserstoffsäure dazu. Diese Proben werden in einem Spektrophotometer bei 360 nm mit Wasser verglichen, und ihre optische Dichte wird bestimmt. Diese Werte werden durch einen Konversionsfaktor einer Standard-Kurve angepaßt, wobei man die während der genannten Inkubation von 30 Minuten gebildete Histidyl-leucin-Menge in Nanomolen erhält. Die Ergebnisse werden, um den IC50-Wert zu bestimmen, gegenüber den Wirkstoff-Konzentrationen graphisch als Kurve dargestellt. Der IC50-Wert bedeutet diejenige WirkstoffKonzentration, welche die Hälfte der Aktivität einer Kontrollprobe, die keinen Wirkstoff enthält, ergibt. Als Illustration der Erfindung sei auf das « höher schmelzende 1-Carboxymethyl-3-(1-carboxy-3-phenylpro- pylamino)-2,3,4,5-tetrahydro-1H-[1]-benzazepin-2-on des Beispiels 9 und auf das entsprechende S,S-Enantiomere des Beispiels 19 hingewiesen, welche einen lC50-Wert von 5,2 × 10^-9 M bzw. 1,7 × 10^-9 M aufweisen. Das entsprechende « niedriger schmelzende » 1-Carboxymethyl-3-(1-carboxy-3-phenylpropy- iamino)-2,3,4,5-tetrahydro-1H-[1] benzazepin-2-on des Beispiels 8 zeigt einen lC50-Wert von 5,8 ×10^-8 M.
Die Prüfung der Wirkung von Verbindungen ist gemäss den Methoden für die Auswertung der Hemmung des Enzyms, welches das Angiotensin umwandelt [angiotensin converting enzyme = ACE] durchgeführt worden. In der biochemischen Beurteilung der in vitro ACE-Hemmung [ACE inhibition = A-CEI] wird die Aktivität einer Verbindung im Kaninchen-Lungengewebe bestimmt.
Es wurde ein Kaninchen-Lungengewebe-Präparat [Das and Saffer, J. Biol. Chem. 250 : 6762 (1975) für die Bestimmung von ACE nach der Methode von Cheung und Cushman [Cheung and Cushman, Biochim. Biophys. Acta 293, 451 (1973)] verwendet. In dieser Methode wird die Menge des Histidyl-leucins. welche aus einem synthetischen Substrat innerhalb einer Inkubation von 30 Minuten bei 37° freigesetzt wird, spektrophotometrisch bestimmt. Die lC50-Werte der ACE-Hemmung werden dann graphisch berechnet. Der lC50-Wert ist die Konzentration (in Mol) der getesteten Verbindung, welche die in Abwesenheit der Testsubstanz entstehende Menge des Histidyl-leucins um 50 % herabsetzt.

The mark [1] stands for this setting: rabbit lung tissue preparation, 30 min incubation at 37°, read-out: In vitro ACEI IC50.

As a reminder, the IC50 is the midpoint of a concentration-inhibition curve.

Where two headings read alike, the source gives them in different places.

As to `O=C(O)CN1C(=O)[C@@H](N[C@@H](CCc2ccccc2)C(=O)O)CCc2ccccc21` [Beispiel 19, 1-Carboxymethyl-3S-(1S-carboxy-3-phenylpropylamino)-2,3,4,5-tetrahydro-1H-[1] benzazepin-2-on], the IC50 is, setting by setting: (ACE from rabbit lung, 30 min at 37 °C, read-out: IC50-Wert) 1.7 nM; under setting [1], 2 nM. `CCOC(=O)[C@H](CCc1ccccc1)N[C@H]1CCc2ccccc2N(CC(=O)O)C1=O` (racemic) [Beispiel 1, 1-Carboxymethyl-3-(1-äthoxycarbonyl-3-phenylpropylamino)-2,3,4,5-tetrahydro-1H-[1] benzazepin-2-on]: the concentration for half-maximal inhibition (IC50) under setting [1] turned out to be 600 nM.

The values are drawn from EP0072352B1, “Benzazepin-2-ones, process for their preparation, pharmaceutical preparations containing these compounds and the compounds for therapeutical use” (CIBA-GEIGY AG, priority 1981, dated 1983).
